Measurements as given in ChEMBL document CHEMBL5247574, “Recent Progress on Bile Acid Receptor Modulators for Treatment of Metabolic Diseases” (J Med Chem, 2016).
Converted amounts (≈) assume the structure as drawn.

Tests used:
[1] = biological target: T1, G-protein coupled bile acid receptor 1 (Homo sapiens, UniProt Q8TDU6); experiment: Agonist activity at TGR5 in human HEK293 cells assessed as increase in cAMP production; assay type: cell-based
T1 sequence (Q8TDU6 whole entry): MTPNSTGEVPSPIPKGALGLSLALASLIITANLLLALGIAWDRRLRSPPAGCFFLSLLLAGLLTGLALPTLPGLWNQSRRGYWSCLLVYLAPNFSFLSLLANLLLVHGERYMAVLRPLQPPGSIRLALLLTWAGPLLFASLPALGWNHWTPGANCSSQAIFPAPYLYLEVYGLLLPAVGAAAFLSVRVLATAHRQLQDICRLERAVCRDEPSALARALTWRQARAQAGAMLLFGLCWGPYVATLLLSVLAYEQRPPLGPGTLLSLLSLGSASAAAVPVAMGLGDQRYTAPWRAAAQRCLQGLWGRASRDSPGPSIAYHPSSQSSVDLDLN

[2] = biological target: T2, G-protein coupled bile acid receptor 1 (Rattus norvegicus) (UniProt Q80T02); experiment: Agonist activity at TGR5 in rat Primary intestinal cell assessed as stimulation of GLP-1 secretion at 30 uM relative to control; assay type: cell-based; conditions: filed as agonist
T2 sequence (whole entry): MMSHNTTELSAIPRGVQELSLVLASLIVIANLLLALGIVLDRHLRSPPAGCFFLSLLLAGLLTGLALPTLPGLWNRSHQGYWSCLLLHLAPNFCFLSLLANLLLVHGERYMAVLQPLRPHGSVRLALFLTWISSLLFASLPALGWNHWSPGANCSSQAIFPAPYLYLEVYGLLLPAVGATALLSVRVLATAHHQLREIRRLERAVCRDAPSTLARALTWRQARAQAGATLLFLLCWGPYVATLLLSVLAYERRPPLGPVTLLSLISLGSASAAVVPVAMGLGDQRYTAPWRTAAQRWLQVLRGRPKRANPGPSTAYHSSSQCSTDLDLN

[3] = biological target: T1, G-protein coupled bile acid receptor 1; experiment: Agonist activity at human TGR5 transfected in CHO-K1 cells assessed as increase in cAMP production; assay type: cell-based
[4] = Aqueous solubility of compound; assay type: physicochemical; conditions: buffer
[5] = biological target: T1, G-protein coupled bile acid receptor 1; experiment: Agonist activity at human TGR5 transfected in CHO cells assessed as increase in cAMP production; assay type: cell-based
[6] = biological target: T3, Bile acid receptor (Homo sapiens, UniProt Q96RI1); experiment: Antagonist activity at FXR in human HepG2 cells in presence of CDCA by luciferase reporter assay; assay type: cell-based
T3 sequence (Q96RI1 whole entry): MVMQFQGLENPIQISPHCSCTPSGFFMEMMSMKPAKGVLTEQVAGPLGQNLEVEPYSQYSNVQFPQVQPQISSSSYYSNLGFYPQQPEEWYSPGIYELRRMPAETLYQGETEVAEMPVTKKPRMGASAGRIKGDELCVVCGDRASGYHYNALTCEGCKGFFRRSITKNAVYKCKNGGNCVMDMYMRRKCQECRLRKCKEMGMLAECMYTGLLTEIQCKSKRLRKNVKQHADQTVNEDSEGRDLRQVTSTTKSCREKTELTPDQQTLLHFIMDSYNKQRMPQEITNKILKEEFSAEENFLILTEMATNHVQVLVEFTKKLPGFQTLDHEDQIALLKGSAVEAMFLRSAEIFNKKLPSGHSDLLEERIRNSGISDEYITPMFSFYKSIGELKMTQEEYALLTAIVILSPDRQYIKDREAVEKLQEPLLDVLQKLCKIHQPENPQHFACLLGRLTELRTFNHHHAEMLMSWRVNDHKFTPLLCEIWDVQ

[7] = biological target: T3, Bile acid receptor; experiment: Antagonist activity at FXR (unknown origin) by HTFR assay
[8] = biological target: T1, G-protein coupled bile acid receptor 1; experiment: Agonist activity at human TGR5 expressed in human HEK293 cells measured after 5.5 hrs by steady-glo luciferase assay; assay type: cell-based
[9] = biological target: T4, G-protein coupled bile acid receptor 1 (Homo sapiens) (UniProt Q8TDU6); experiment: Agonist activity at human TGR5 expressed in human HEK293 cells at 20 uM measured after 5.5 hrs by steady-glo luciferase assay relative to control; assay type: cell-based; conditions: filed as agonist
T4 sequence (whole entry): T1 sequence (Q8TDU6 whole entry)

[10] = biological target: T3, Bile acid receptor; experiment: Antagonist activity at FXR in human HepG2 cells incubated for 24 hrs by dual luciferase reporter assay; assay type: cell-based
[11] = Binding affinity to FXR alpha LBD (unknown origin); parameters: species or system Homo sapiens
[12] = biological target: T5, Bile acid receptor (Homo sapiens) (UniProt Q96RI1); experiment: Agonist activity at FXR (unknown origin) by alphascreen assay; conditions: filed as agonist
T5 sequence (whole entry): T3 sequence (Q96RI1 whole entry)

[13] = biological target: T3, Bile acid receptor; experiment: Agonist activity at human GST-tagged FXR LBD (193 to 472 residues) by FRET assay
[14] = biological target: T3, Bile acid receptor; experiment: Agonist activity at FXR (unknown origin)
[15] = Clearance in human liver microsomes; assay type: ADME, Microsome; conditions: liver microsomes, read-out: CLH
[16] = Clearance in mouse liver microsomes; assay type: ADME, Microsome; conditions: liver microsomes, read-out: CLH
[17] = biological target: T6, G-protein coupled bile acid receptor 1 (Mus musculus, UniProt Q80SS6); experiment: Agonist activity at mouse TGR5
T6 sequence (Q80SS6 whole entry): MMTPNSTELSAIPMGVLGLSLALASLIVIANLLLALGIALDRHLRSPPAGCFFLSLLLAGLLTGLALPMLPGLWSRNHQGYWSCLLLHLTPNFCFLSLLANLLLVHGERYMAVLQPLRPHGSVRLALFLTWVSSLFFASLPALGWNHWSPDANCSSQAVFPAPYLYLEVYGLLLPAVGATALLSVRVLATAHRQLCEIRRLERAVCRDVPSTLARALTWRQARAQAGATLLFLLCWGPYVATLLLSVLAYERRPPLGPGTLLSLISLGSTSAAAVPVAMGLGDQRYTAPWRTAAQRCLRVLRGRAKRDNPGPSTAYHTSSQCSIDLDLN

[18] = biological target: T1, G-protein coupled bile acid receptor 1; experiment: Agonist activity at human TGR5; conditions: read-out: EC50

O=c1c2cccnc2nc(-c2cncc(Cl)c2)n1NCc1ccc(Cl)cc1F
EC50 [1]: < 10000 nM

CN1CC(C)(C)N(C(=O)COc2cccc3cnccc23)c2ccc(F)cc21
Activity [2]: 251%

Cc1c(Cl)cccc1OCCCC(=O)N1CCCc2c(-c3cnn(Cc4c(F)cc(C(=O)NCCS(=O)(=O)O)cc4Cl)c3)cccc21
EC50 [3]: 23 nM

O=C(c1cccnc1Oc1cc(Cl)ccc1Cl)N1CCN(C2COC2)c2ccccc21
solubility [4]: 14 µg/mL (≈ 30.7 µM)

FC(F)(F)c1ccc(CNCc2cc3ccsc3nc2-c2ccsc2)cc1
EC50 [1]: < 10000 nM

Cc1ccccc1[C@H](C/C(=N/O)C1CCC(=O)N(C)C1)c1ccc(S(C)(=O)=O)cc1 (stereo not given in full)
EC50 [5]: 29 nM

Cc1cc(/C(C[C@H](c2ccc(C3C[C@@H]4C(C(=O)O)[C@@H]4C3)cc2)c2ccc(F)cc2F)=N\O)ccn1 (stereo not given in full)
EC50 [5]: 1 nM

CC[C@@H](CC[C@@H](C)[C@H]1CCC2=C3CC[C@H]4C(C)=CCC[C@]4(C)C3CC[C@@]21C)C(C)C (stereo not given in full)
IC50 [6]: 35000 nM

O=C(O)c1ccccc1-c1ccc(Cn2ccc(OCc3c(-c4c(Cl)cccc4Cl)noc3-c3cccs3)n2)cc1
IC50 [7]: 4200 nM

Fc1ccccc1-c1ccncc1CN1C(c2ccco2)=NOC1c1cc(C(F)(F)F)cc(C(F)(F)F)c1Cl (stereo not given)
EC50 [8]: 5.6 nM | Activity [9]: 90%

CC(C)n1ncc2cc(CNCc3ccc(C(F)(F)F)cc3)c(-c3ccsc3)cc21
EC50 [1]: < 10000 nM

CN(C)c1cc(Cl)c(C(=O)N(Cc2ccccc2)c2ccc(O)c(C(C)(C)C)c2)c(Cl)c1
IC50 [10]: 4500 nM | Kd [11]: 8300 nM

O=c1c2nccnc2nc(-c2ccc(F)cc2)n1CCc1ccc(Cl)cc1
EC50 [1]: < 10000 nM

Fc1cccc(F)c1-c1ccncc1CN1C(c2ccco2)=NO[C@@H]1c1cc(C(F)(F)F)cc(C(F)(F)F)c1Cl
EC50 [8]: 1.4 nM | Activity [9]: 96%

C=C1[C@@H](O)CC[C@]2(C)C3CC[C@@]4(C)C(=C3CC[C@@H]12)CC[C@@H]4[C@H](C)CC[C@H](CC)C(C)C (stereo not given in full)
IC50 [6]: 40000 nM

CC[C@H]1[C@@H](O)C2C3CC[C@H](C(C)CCOS(=O)(=O)O)[C@@]3(C)CCC2[C@@]2(C)CC[C@@H](O)C[C@@H]12 (stereo not given in full)
Activity [12]: 30 nM

O=C(O)c1ccc2cc(N3C4CCC3CC(OCc3c(-c5ccccc5OC(F)(F)F)noc3C3CC3)C4)ccc2c1 (stereo not given)
EC50 [13]: 1 nM

CO[C@H](c1ccccc1)c1nc2cc(F)c(F)cc2n1C(C(=O)Nc1ccc(C(=O)O)cc1C)C1CCCCC1 (stereo not given in full)
IC50 [14]: 20 nM

COc1cc(F)ccc1-c1ccncc1N(C)C(=O)c1cc(C(F)(F)F)cc(S(=O)(=O)N2CC3(COC3)C2)c1
EC50 [5]: 9 nM

N#Cc1cc(F)ccc1N(C(=O)COc1cccc2cnccc12)c1ccc(F)cc1Cl
EC50 [1]: 7370 nM

Cc1ccccc1[C@H](C/C(=N/O)c1ccc(=O)n(C)n1)c1ccc(Br)cc1
EC50 [5]: 6 nM

O=C(Nc1nnn[nH]1)c1cc(Cl)c(Oc2ncccc2C(=O)N2CCN(C3CC3)c3ccccc32)cc1Cl
microsomal CLint [15]: 56 µL/min/mg | microsomal CLint [16]: 56 µL/min/mg | EC50 [17]: 350 nM | solubility [4]: 535 µg/mL (≈ 970 µM) | EC50 [18]: 76 nM

O=C(c1cc(C(F)(F)F)cc(C(F)(F)F)c1)N1CCCn2cccc2C1c1ccccc1 (stereo not given)
EC50 [1]: < 10000 nM
